The target in one assay is T1, hTLR7 (Homo sapiens, UniProt Q9NYK1).
T1 construct: host or cells: HEK-Blue hTLR7 (HEK293-derived)
T1 sequence (Q9NYK1 27-1049): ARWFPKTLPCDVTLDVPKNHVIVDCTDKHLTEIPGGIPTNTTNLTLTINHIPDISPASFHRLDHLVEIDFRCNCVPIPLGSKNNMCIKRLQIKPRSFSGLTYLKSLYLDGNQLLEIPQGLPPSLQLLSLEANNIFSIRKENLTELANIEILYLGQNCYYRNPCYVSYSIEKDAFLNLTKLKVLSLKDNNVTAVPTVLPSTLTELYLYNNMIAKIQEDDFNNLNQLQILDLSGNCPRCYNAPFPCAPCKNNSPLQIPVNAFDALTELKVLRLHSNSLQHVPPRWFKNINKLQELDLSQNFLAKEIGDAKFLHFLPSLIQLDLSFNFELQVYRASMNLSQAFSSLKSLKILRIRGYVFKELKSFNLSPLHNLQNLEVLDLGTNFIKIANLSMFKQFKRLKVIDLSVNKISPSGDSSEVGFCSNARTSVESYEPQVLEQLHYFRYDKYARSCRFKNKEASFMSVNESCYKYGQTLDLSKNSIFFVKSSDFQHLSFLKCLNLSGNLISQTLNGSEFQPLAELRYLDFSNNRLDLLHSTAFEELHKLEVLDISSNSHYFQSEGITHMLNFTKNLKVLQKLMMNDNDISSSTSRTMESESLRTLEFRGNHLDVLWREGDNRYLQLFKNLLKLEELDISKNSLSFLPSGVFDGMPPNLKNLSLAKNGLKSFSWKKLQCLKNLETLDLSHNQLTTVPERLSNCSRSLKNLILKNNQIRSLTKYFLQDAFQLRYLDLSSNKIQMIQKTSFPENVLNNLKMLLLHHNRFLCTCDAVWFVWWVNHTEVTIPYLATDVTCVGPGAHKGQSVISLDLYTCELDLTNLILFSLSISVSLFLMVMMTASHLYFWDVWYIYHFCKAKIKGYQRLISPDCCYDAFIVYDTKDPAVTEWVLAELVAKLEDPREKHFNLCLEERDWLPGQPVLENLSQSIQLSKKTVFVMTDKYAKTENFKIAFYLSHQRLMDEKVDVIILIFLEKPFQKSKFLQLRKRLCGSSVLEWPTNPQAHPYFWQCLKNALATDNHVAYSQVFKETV
In words: HEK-Blue hTLR7 SEAP reporter assay. Type of assay: cell-based. The note with it: HEK-Blue hTLR7 cells, SEAP in supernatant. As to the method:
(§1) Starting with the lead compound, 76 pyrido [3,2-d] pyrimidine derivatives were synthesized and optimized through structural modification from the deep hydrophobic region to the solvent-exposed region. Seventy-six compounds were evaluated for their in vitro activity using HEK-Blue hTLR7 or hTLR8 reporter cells, stably expressing the human TLR7 or TLR8 and an NF-κB/AP1-inducible SEAP (secreted embryonic alkaline phosphatase reporter gene).
(§2) Add 20 μl various concentrations of TLR agonists (10 dilutions) and in a 96-well plate. Then HEK-Blue hTLR7 and hTLR8 cells were suspended to 4 × 10^5 cells/ml in HEK-Blue Detection (InvivoGen) medium and added 180 μl per well. The plates were incubated at 37°C in 5% CO2 for 12 ~ 16 h. Stimulation with a hTLR7or hTLR8 ligand activates NF-κB to induce the production of secreted embryonic alkaline phosphatase (SEAP) in the culture supernatant. SEAP could be measured at OD630nm on an ELISA plate reader.
(Reporter assays use an easily measured gene product as a stand-in for the process of interest.)

For another assay, the target named is T2, hTLR8 (Homo sapiens, UniProt Q9NR97).
T2 construct: host or cells: HEK-Blue hTLR8 (HEK293-derived)
T2 sequence (Q9NR97 27-1041): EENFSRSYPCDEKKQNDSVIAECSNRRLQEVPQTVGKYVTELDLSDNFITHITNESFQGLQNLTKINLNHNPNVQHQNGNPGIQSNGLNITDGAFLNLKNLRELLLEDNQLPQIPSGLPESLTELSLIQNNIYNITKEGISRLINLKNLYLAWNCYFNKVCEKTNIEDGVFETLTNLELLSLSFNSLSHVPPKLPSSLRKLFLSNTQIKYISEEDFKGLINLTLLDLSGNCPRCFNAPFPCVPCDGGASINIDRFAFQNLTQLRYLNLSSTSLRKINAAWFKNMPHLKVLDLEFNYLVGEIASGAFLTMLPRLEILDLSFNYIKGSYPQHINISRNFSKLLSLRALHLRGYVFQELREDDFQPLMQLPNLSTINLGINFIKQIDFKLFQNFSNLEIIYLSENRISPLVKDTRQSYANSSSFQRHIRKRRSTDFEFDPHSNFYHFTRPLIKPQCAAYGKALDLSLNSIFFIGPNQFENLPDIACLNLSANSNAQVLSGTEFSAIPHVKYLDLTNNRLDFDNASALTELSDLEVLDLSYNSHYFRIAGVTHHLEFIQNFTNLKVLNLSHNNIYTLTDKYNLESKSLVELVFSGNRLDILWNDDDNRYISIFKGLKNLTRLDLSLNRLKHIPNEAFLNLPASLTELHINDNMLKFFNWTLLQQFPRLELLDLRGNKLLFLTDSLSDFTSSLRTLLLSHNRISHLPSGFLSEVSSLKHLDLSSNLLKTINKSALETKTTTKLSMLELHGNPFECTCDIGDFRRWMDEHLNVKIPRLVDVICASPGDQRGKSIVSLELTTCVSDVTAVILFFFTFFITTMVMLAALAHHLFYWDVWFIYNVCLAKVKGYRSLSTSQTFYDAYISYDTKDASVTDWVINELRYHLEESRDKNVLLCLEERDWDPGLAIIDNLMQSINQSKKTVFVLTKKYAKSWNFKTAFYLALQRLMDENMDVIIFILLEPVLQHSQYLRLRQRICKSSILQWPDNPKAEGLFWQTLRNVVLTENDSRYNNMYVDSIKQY
The experiment in a line: HEK-Blue hTLR8 SEAP reporter assay. The class given is cell-based. The following applies: HEK-Blue hTLR8 cells, SEAP in supernatant. As to the method: as §1, §2

The term EC50 denotes the concentration at which the effect is half-maximal. A low value points to higher potency in that assay.

As for `CCCCNc1nc(N)nc2ccc(Cc3ccc(CN(C)C)cc3)nc12` [D018], the results for the concentration for a half-maximal effect (EC50) on hTLR7 and on hTLR8 were 40.2 nM and 6.46 nM, respectively.
